From the supplement of paper PMC10307832

Columns and labels:
Assay in all cases: relative viability (nuclei count vs DMSO), 5 days (fraction); higher = more cells survive
[1] = compound: C=CC(=O)N1CCC[C@@H](n2nc(-c3ccc(Oc4ccccc4)cc3)c3c(N)ncnc32)C1 [Ibrutinib] + N=C(N)NC(=N)NCCc1ccccc1 [Phenformin] (partner 250 µM)
In short: (§1)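 Medians of duplicate plates are given as relative viability. That measure is the nuclei count in treated wells divided by the count in vehicle wells. Counts were taken on 4× images of lung cancer cell lines in 1536-well plates, 5 days after pin-tool dosing the day after seeding with one drug alone or a fixed anchor-drug dose plus five library-drug doses (not always all listed) in √10 steps.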

[2] = compound: C=CC(=O)Nc1cc(-n2c(=O)ccc3cnc4ccc(-c5ccc(NS(C)(=O)=O)cc5)cc4c32)ccc1C [BMX-IN-1] + CS(=O)(=O)CCNCc1ccc(-c2ccc3ncnc(Nc4ccc(OCc5cccc(F)c5)c(Cl)c4)c3c2)o1 [Lapatinib] (partner 2 µM)
In short: as §1

[3] = compound: C=CCc1cccc(/C=N/NC(=O)CN2CCN(Cc3ccccc3)CC2)c1O [PAC-1] + N=C(N)NC(=N)NCCc1ccccc1 [Phenformin] (partner 250 µM)
In short: as §1

[4] = compound: C=CCc1cccc(/C=N/NC(=O)CN2CCN(Cc3ccccc3)CC2)c1O [PAC-1] + O=C(c1cc(Cc2n[nH]c(=O)c3ccccc23)ccc1F)N1CCN(C(=O)C2CC2)CC1 [Olaparib] (partner 8 µM)
In short: as §1

Cell Line	relative viability ([1]; first compound 0.005 µM)	relative viability ([1]; first compound 0.01581 µM)	relative viability ([1]; first compound 0.05 µM)	relative viability ([1]; first compound 0.1581 µM)	relative viability ([1]; first compound 0.5 µM)	relative viability ([2]; first compound 0.02 µM)	relative viability ([2]; first compound 0.2 µM)	relative viability ([2]; first compound 0.6325 µM)	relative viability ([2]; first compound 2 µM)	relative viability ([3]; first compound 0.02 µM)	relative viability ([3]; first compound 0.06325 µM)	relative viability ([3]; first compound 0.2 µM)	relative viability ([3]; first compound 2 µM)	relative viability ([4]; first compound 0.02 µM)	relative viability ([4]; first compound 0.06325 µM)	relative viability ([4]; first compound 0.2 µM)	relative viability ([4]; first compound 2 µM)
LXF-289	0.537	0.472	0.515	0.465	0.497	0.982	1.01	0.957	0.983	0.52	0.53	0.501	0.511	1.07	1.03	1.05	1.03
HARA	0.445	0.377	0.357	0.406	0.331	0.997	0.842	1.01	0.69	0.438	0.476	0.446	0.507	0.769	0.65	0.813	1.16
NCI-H1975	0.452	0.372	0.379	0.416	0.215	1.27	0.869	1.23	0.929	0.404	0.389	0.401	0.447	0.779	0.809	0.811	0.703
UMC-11	0.29	0.312	0.316	0.337	0.362	1.1	1.1	1.28	1.1	0.325	0.368	0.298	0.326	0.411	0.366	0.366	0.377
NCI-H2023	0.376	0.392	0.402	0.45	0.357	1.19	0.954	1.19	0.855	0.427	0.404	0.405	0.397	0.468	0.425	0.449	0.257
NCI-H23	0.674	0.777	0.789	0.861	0.797	1.04	1.24	1.01	1	0.788	0.814	0.713	0.815	0.28	0.284	0.313	0.352
CAL-12T	0.546	0.447	0.362	0.651	0.35	0.692	0.722	0.795	0.613	0.6	0.657	0.542	0.571	0.719	0.701	0.72	0.695
LCLC-97TM1	0.452	0.457	0.449	0.504	0.411	0.862	1.24	1.41	0.816	0.507	0.456	0.424	0.427	0.364	0.524	–	0.338
NCI-H661	0.26	0.281	0.252	0.287	0.271	0.564	0.458	0.452	0.517	0.255	0.299	0.278	0.29	0.664	0.721	0.684	0.505
NCI-H1944	0.202	0.176	0.195	0.177	0.182	0.986	0.866	0.919	0.921	0.198	0.198	0.19	0.189	0.389	0.434	0.425	0.402
NCI-H1915	0.401	0.351	0.367	0.421	0.373	1.16	1.05	1.13	0.968	0.364	0.358	0.345	0.365	0.234	0.262	0.22	0.274
BEN	–	0.23	0.282	0.283	0.247	0.829	0.891	0.729	0.724	0.273	0.282	0.266	0.302	1.14	1.05	0.885	0.872
H3255	0.364	0.344	0.382	0.375	0.233	0.207	0.206	0.207	0.222	0.398	0.394	0.334	0.308	0.64	0.579	0.536	0.515
NCI-H1395	0.281	0.404	0.468	0.442	0.405	1.03	0.996	1.12	0.951	0.45	0.429	0.421	0.426	0.493	0.44	0.485	0.46
NCI-H1437	0.352	0.3	0.318	0.317	0.314	0.928	0.867	0.907	0.915	0.302	0.275	0.264	0.339	0.606	0.632	0.555	0.471
NCI-H1755	0.667	0.624	0.65	0.627	0.665	1.2	1.02	1.09	1.02	0.615	0.614	0.595	0.606	0.879	0.837	0.849	0.826
SK-LU-1	0.433	0.542	0.585	0.545	0.485	1.3	0.779	0.938	0.771	0.568	0.547	0.432	0.587	0.405	0.465	0.455	0.414
HOP-62	0.759	0.621	0.696	0.724	0.804	1.05	1.16	0.955	1.04	0.692	0.541	0.585	0.647	0.408	0.273	0.438	0.502
NCI-H2228	0.378	–	0.346	0.263	0.285	1.89	1.09	1.52	0.929	0.303	0.303	0.306	0.318	0.619	0.607	0.619	0.646

Cell Line	relative viability ([1]; first compound 0.005 µM)	relative viability ([1]; first compound 0.01581 µM)	relative viability ([1]; first compound 0.05 µM)	relative viability ([1]; first compound 0.1581 µM)	relative viability ([1]; first compound 0.5 µM)	relative viability ([2]; first compound 0.02 µM)	relative viability ([2]; first compound 0.2 µM)	relative viability ([2]; first compound 0.6325 µM)	relative viability ([2]; first compound 2 µM)	relative viability ([3]; first compound 0.02 µM)	relative viability ([3]; first compound 0.06325 µM)	relative viability ([3]; first compound 0.2 µM)	relative viability ([3]; first compound 2 µM)	relative viability ([4]; first compound 0.02 µM)	relative viability ([4]; first compound 0.06325 µM)	relative viability ([4]; first compound 0.2 µM)	relative viability ([4]; first compound 2 µM)
SW 1573	0.317	0.345	0.477	0.406	0.423	1.31	1.29	1.24	0.701	0.372	0.352	0.36	0.303	0.446	0.426	0.442	0.41
PC-14	0.589	0.512	0.429	0.357	0.174	0.356	0.321	0.338	0.258	0.59	0.683	0.727	0.633	0.255	0.275	0.288	0.298
EMC-BAC-2	0.465	0.509	0.53	0.571	0.507	0.985	0.997	0.991	0.887	0.496	0.556	0.52	0.511	0.523	0.481	0.488	0.504
NCI-H520	0.431	0.606	0.583	0.634	0.356	1.04	0.903	1.05	0.838	0.418	0.685	0.462	0.6	0.382	0.383	0.361	0.33
NCI-H2170	0.431	0.42	0.395	0.39	0.36	0.281	0.28	0.272	0.271	0.426	0.356	0.422	0.384	0.557	0.632	0.562	0.542
A-427	0.307	0.351	0.316	0.27	0.3	1.21	0.995	1.17	1.06	0.328	0.384	0.338	0.279	0.786	0.776	0.666	0.711
ABC-1	0.185	0.271	0.214	0.24	0.29	1.46	1.23	1.16	1.28	0.217	0.231	0.24	0.21	0.781	0.668	0.848	0.741
LC-2-ad	0.552	0.579	0.56	0.478	0.531	1.12	1.12	1.09	1.05	0.609	0.654	0.573	0.512	0.704	0.712	0.35	0.635
NCI-H727	–	0.612	0.546	–	0.401	0.841	1.01	0.887	0.939	0.463	0.682	0.565	0.52	0.753	0.715	0.568	0.68
COR-L23	0.491	0.408	0.454	0.472	0.445	1.65	1.47	1.17	0.941	0.458	0.434	0.423	0.429	0.308	0.334	–	0.379
NCI-H3122	0.363	0.359	0.414	0.358	0.406	1.1	1.08	0.988	1.05	0.378	0.377	0.365	0.333	0.635	0.634	0.624	0.566
NCI-H322M	0.715	0.675	0.675	0.676	0.569	0.626	0.591	0.563	0.578	0.716	0.819	0.776	0.762	0.762	0.782	0.74	0.834
HCC-44	0.138	0.182	0.148	0.11	0.232	1.07	1.28	1.22	1.11	0.184	0.18	0.17	0.131	1.05	0.906	0.963	0.986
NCI-H2347	–	0.447	0.332	0.294	0.239	1.01	1.06	0.991	0.944	0.184	0.441	0.352	0.553	0.544	0.622	0.551	0.515
HCC-827	0.408	0.358	0.304	0.431	0.181	0.189	0.203	0.193	0.206	0.383	0.402	0.368	0.4	0.65	0.696	0.6	0.646
LOU-NH91	0.59	0.642	0.557	0.711	0.45	–	0.792	0.819	0.819	0.713	0.695	0.668	0.798	0.884	0.908	0.92	0.879
NCI-H1651	0.34	0.262	0.295	0.308	0.252	1	0.967	1.17	0.834	0.364	0.341	0.29	0.333	0.149	0.2	0.181	0.193
NCI-H1792	–	0.449	–	0.206	0.171	0.834	1.04	0.937	0.922	0.298	0.257	0.293	0.24	0.305	0.383	0.0039	0.454
PC-3 [JPC-3]	0.47	0.452	0.467	0.473	0.391	0.533	0.466	0.47	0.476	0.484	0.468	0.461	0.489	1.04	1.15	1.1	1.09
